# Results reported in patent publication US20240092835A1, “NOVEL PEPTIDES CAPABLE OF ALTERING NK CELL ACTIVITY” (Massachusetts Institute of Technology, priority 2022, published 2024).
# Legend:
# Assay type in all cases: cell-based, human
# NKG2A+/NKG2C− NK cells = experiment: NK cell activation markers in NKG2A+/NKG2C- NK cells incubated with peptide and K562 expressing HLA-E (inhibition); conditions: NKG2A+/NKG2C- NK cells, K562/HLA-E
# Description: (§1) A human immortalized myelogenous leukemia cell line (K562), which expresses HLA-E was incubated with novel peptides (Table 1) derived from the human proteome or human cytomegalovirus proteome. […] Controls assessments were also performed using NKG2A−/NKG2C− cells (Tables 10-13). Inhibition was indicated by a decrease in percent cells positive for cell surface markers, while activation was indicated by an increase in percent cells positive for cell surface markers.
# NKG2A−/NKG2C+ NK cells = experiment: NK cell activation markers in NKG2A-/NKG2C+ NK cells incubated with peptide and K562 expressing HLA-E (activation); conditions: NKG2A-/NKG2C+ NK cells, K562/HLA-E
# Description: as §1
# NKG2A−/NKG2C− NK cells = experiment: NK cell activation markers in control NKG2A-/NKG2C- NK cells incubated with peptide and K562 expressing HLA-E
# Description: as §1
sequence,measurement,setting,value
"VMAPRTLIL [VMAPRTLIL (LIL), positive control peptide, reference compound]",percentage of CCL3+ NK cells,NKG2A+/NKG2C− NK cells; Trial 1,1.59%
same,percentage of CD107a+ NK cells,NKG2A+/NKG2C− NK cells; Trial 1,0.35%
same,percentage of IFNG+ NK cells,NKG2A+/NKG2C− NK cells; Trial 1,0%
same,percentage of TNF+ NK cells,NKG2A+/NKG2C− NK cells; Trial 1,0%
same,percentage of CCL3+ NK cells,NKG2A+/NKG2C− NK cells; Trial 2,14.4%
same,percentage of CD107a+ NK cells,NKG2A+/NKG2C− NK cells; Trial 2,2.73%
same,percentage of IFNG+ NK cells,NKG2A+/NKG2C− NK cells; Trial 2,0.59%
same,percentage of TNF+ NK cells,NKG2A+/NKG2C− NK cells; Trial 2,0.39%
same,percentage of CCL3+ NK cells,NKG2A+/NKG2C− NK cells; Trial 3,4.32%
same,percentage of CD107a+ NK cells,NKG2A+/NKG2C− NK cells; Trial 3,1.95%
same,percentage of IFNG+ NK cells,NKG2A+/NKG2C− NK cells; Trial 3,0.87%
same,percentage of TNF+ NK cells,NKG2A+/NKG2C− NK cells; Trial 3,0.46%
same,percentage of CCL3+ NK cells,NKG2A+/NKG2C− NK cells; Trial 4,0.75%
same,percentage of CD107a+ NK cells,NKG2A+/NKG2C− NK cells; Trial 4,0.77%
same,percentage of IFNG+ NK cells,NKG2A+/NKG2C− NK cells; Trial 4,0.08%
same,percentage of TNF+ NK cells,NKG2A+/NKG2C− NK cells; Trial 4,0.08%
same,percentage of CCL3+ NK cells,NKG2A+/NKG2C− NK cells; Trial 5,1.56%
same,percentage of CD107a+ NK cells,NKG2A+/NKG2C− NK cells; Trial 5,0.56%
same,percentage of IFNG+ NK cells,NKG2A+/NKG2C− NK cells; Trial 5,0.06%
same,percentage of TNF+ NK cells,NKG2A+/NKG2C− NK cells; Trial 5,0.06%
same,percentage of CCL3+ NK cells,NKG2A+/NKG2C− NK cells; Trial 6,0.92%
same,percentage of CD107a+ NK cells,NKG2A+/NKG2C− NK cells; Trial 6,0.92%
same,percentage of IFNG+ NK cells,NKG2A+/NKG2C− NK cells; Trial 6,0.05%
same,percentage of TNF+ NK cells,NKG2A+/NKG2C− NK cells; Trial 6,0.05%
same,percentage of CCL3+ NK cells,NKG2A−/NKG2C+ NK cells; Trial 1,76.7%
same,percentage of CD107+ NK cells,NKG2A−/NKG2C+ NK cells; Trial 1,74.1%
same,percentage of IFNG+ NK cells,NKG2A−/NKG2C+ NK cells; Trial 1,64.1%
same,percentage of TNF+ NK cells,NKG2A−/NKG2C+ NK cells; Trial 1,48.5%
same,percentage of CCL3+ NK cells,NKG2A−/NKG2C+ NK cells; Trial 2,92%
same,percentage of CD107+ NK cells,NKG2A−/NKG2C+ NK cells; Trial 2,87%
same,percentage of IFNG+ NK cells,NKG2A−/NKG2C+ NK cells; Trial 2,79.8%
same,percentage of TNF+ NK cells,NKG2A−/NKG2C+ NK cells; Trial 2,62.5%
same,percentage of CCL3+ NK cells,NKG2A−/NKG2C+ NK cells; Trial 3,85.4%
same,percentage of CD107+ NK cells,NKG2A−/NKG2C+ NK cells; Trial 3,85.3%
same,percentage of IFNG+ NK cells,NKG2A−/NKG2C+ NK cells; Trial 3,78.1%
same,percentage of TNF+ NK cells,NKG2A−/NKG2C+ NK cells; Trial 3,61.4%
same,percentage of CCL3+ NK cells,NKG2A−/NKG2C+ NK cells; Trial 4,69%
same,percentage of CD107+ NK cells,NKG2A−/NKG2C+ NK cells; Trial 4,73.4%
same,percentage of IFNG+ NK cells,NKG2A−/NKG2C+ NK cells; Trial 4,59.7%
same,percentage of TNF+ NK cells,NKG2A−/NKG2C+ NK cells; Trial 4,50.4%
same,percentage of CCL3+ NK cells,NKG2A−/NKG2C+ NK cells; Trial 5,79.6%
same,percentage of CD107+ NK cells,NKG2A−/NKG2C+ NK cells; Trial 5,79.9%
same,percentage of IFNG+ NK cells,NKG2A−/NKG2C+ NK cells; Trial 5,72.5%
same,percentage of TNF+ NK cells,NKG2A−/NKG2C+ NK cells; Trial 5,66.3%
same,percentage of CCL3+ NK cells,NKG2A−/NKG2C+ NK cells; Trial 6,56.6%
same,percentage of CD107+ NK cells,NKG2A−/NKG2C+ NK cells; Trial 6,63.2%
same,percentage of IFNG+ NK cells,NKG2A−/NKG2C+ NK cells; Trial 6,45.9%
same,percentage of TNF+ NK cells,NKG2A−/NKG2C+ NK cells; Trial 6,35.5%
same,percentage CCL3+ NK cells,NKG2A−/NKG2C− NK cells; Trial 1,31.4%
same,percentage CD107+ NK cells,NKG2A−/NKG2C− NK cells; Trial 1,24.4%
same,percentage TNF+ NK cells,NKG2A−/NKG2C− NK cells; Trial 1,3.46%
same,percentage of IFNG+ NK cells,NKG2A−/NKG2C− NK cells; Trial 1,15.5%
same,percentage CCL3+ NK cells,NKG2A−/NKG2C− NK cells; Trial 2,54%
same,percentage CD107+ NK cells,NKG2A−/NKG2C− NK cells; Trial 2,33.4%
same,percentage TNF+ NK cells,NKG2A−/NKG2C− NK cells; Trial 2,7.41%
same,percentage of IFNG+ NK cells,NKG2A−/NKG2C− NK cells; Trial 2,22.8%
same,percentage CCL3+ NK cells,NKG2A−/NKG2C− NK cells; Trial 3,46.1%
same,percentage CD107+ NK cells,NKG2A−/NKG2C− NK cells; Trial 3,43.2%
same,percentage TNF+ NK cells,NKG2A−/NKG2C− NK cells; Trial 3,13.6%
same,percentage of IFNG+ NK cells,NKG2A−/NKG2C− NK cells; Trial 3,36.7%
same,percentage CCL3+ NK cells,NKG2A−/NKG2C− NK cells; Trial 4,30.8%
same,percentage CD107+ NK cells,NKG2A−/NKG2C− NK cells; Trial 4,26.4%
same,percentage TNF+ NK cells,NKG2A−/NKG2C− NK cells; Trial 4,8.21%
same,percentage of IFNG+ NK cells,NKG2A−/NKG2C− NK cells; Trial 4,18.7%
same,percentage CCL3+ NK cells,NKG2A−/NKG2C− NK cells; Trial 5,23.8%
same,percentage CD107+ NK cells,NKG2A−/NKG2C− NK cells; Trial 5,17.9%
same,percentage TNF+ NK cells,NKG2A−/NKG2C− NK cells; Trial 5,4.32%
same,percentage of IFNG+ NK cells,NKG2A−/NKG2C− NK cells; Trial 5,12.1%
same,percentage CCL3+ NK cells,NKG2A−/NKG2C− NK cells; Trial 6,21.4%
same,percentage CD107+ NK cells,NKG2A−/NKG2C− NK cells; Trial 6,19%
same,percentage TNF+ NK cells,NKG2A−/NKG2C− NK cells; Trial 6,3.8%
same,percentage of IFNG+ NK cells,NKG2A−/NKG2C− NK cells; Trial 6,9.39%
